Values quoted from earlier work in patent US20040142860A1, “Central nervous system-derived immune privilege factor and uses thereof” (Yeda Research and Development Co. Ltd., priority 1996, published 2004).

Test system: ganglion cell degradation in the retina
Settings: single or repeated injections into the vitreous body

Threonine-Lysine-Proline [TKP]
effect on axotomy-induced ganglion cell degradation in the retina: retardation of axotomy-induced ganglion cell degradation in the retina
